Patent publication US11767564B2, “Use of SDHA as a prognostic marker and therapeutic target in uveal melanoma” (Board of Regents, The University of Texas System, priority 2017, dated 2023)

Legend:
[1] = system: monosomy 3 uveal melanoma cell lines; test: Cell survival analysis with OXPHOS inhibitor IACS-10759; type: cell-based
Experimental: Cell survival analysis with monosomy and disomy 3 uveal melanoma cells in presence and absence of oxidative phosphorylation (OXPHOS) inhibitor, IACS-10759, was performed. Cells were cultured under ambient oxygen or 1% oxygen. Mitotracker Red dye staining was used to assay the extent of active mitochondria in monosomy 3 and disomy 3 cells. The percent cell survival of uveal melanoma cells treated with increasing concentrations of OXPHOS inhibitor, IACS-10759, was determined.

[2] = system: monosomy 3 and disomy 3 cells; test: Percent cell survival with SDHA and/or MIF inhibitors; type: cell-based; details: simultaneous 20 nM SDHA siRNA and 10 or 25 μM ISO-1; both cell lines (monosomy 3, disomy 3); FIG. 7B
Text: FIGS. 7A-7B: (FIG. 7A) Survival rate of uveal melanoma predicted using TCGA data. SDHA and MIF expression both above median is associated with lowest survival rate. SDHA and MIF both below median is associated with highest survival rate. SDHA below median and MIF above median expression is associated with the second lowest survival rate (p<0.001). (FIG. 7B) In vitro validation of association of SDHA and MIF expression with uveal melanoma cell survival.
Accordingly, the survival rate of uveal melanoma was predicted using TCGA data of SDHA and/or MIF expression. SDHA and MIF expression both above median was associated with lowest survival rate (FIG. 7A). On the other hand, SDHA and MIF both below median was associated with highest survival rate. Thus, both SDHA and MIF expression correlate with survival rate of uveal melanoma patients and may be used for prognosis. The association of SDHA and MID with uveal melanoma survival rate was validated by measuring percent cell survival in monosomy 3 and disomy 3 cells treated with SHDA and/or MIF inhibitors. SDHA was inhibited by 20 nM siRNA and MIF was inhibited by 10 or 25 μM ISO-1.

Compound | percent cell survival, resistance to inhibitor ([1]; monosomy 3 lines under hypoxic conditions (1% oxygen) or in galactose media) | percent cell survival, resistance to inhibitor ([1]; three monosomy 3 UM cell lines compared to three lines with normal chromosome 3 copy number, increasing concentrations) | percent cell survival [2]
Cc1nc(-c2nc(-c3ccc(OC(F)(F)F)cc3)no2)nn1Cc1cccc(N2CCC(S(C)(=O)=O)CC2)c1 [IACS-10759] | resistance diminishes | more resistant to IACS-10759 | –
COC(=O)CC1CC(c2ccc(O)cc2)=NO1 (stereo not drawn) [ISO-1] | – | – | highest decrease in percent cell survival
